We go through six compounds from patent publication US6632422B2, “Antiperspirant and deodorant products and methods for their use” (priority 2000, dated 2003).

Counter-ions that a name gives are not always drawn. Like-named read-outs stand apart in the source and are kept apart here.

For experiment [1], the system named is isolated human eccrine glands. Description: In vitro sweat reduction study on isolated human eccrine glands. The format is cell-based. From the text: This example illustrates the ability of CCBAs to reduce sweat secretion from isolated human eccrine glands.
The method employed was analogous to that described by Sato and Sato in Am. J. Physiol., 1973, 225, 1147-1151.

Experiment [2] has as its system Staphylococcus epidermidis. As to conditions: cited from earlier work.
Experiment [3] concerns secretory coil cells of human eccrine glands. Description: Inhibition of methylcholine-induced calcium influx into human eccrine secretory coil cells (Fura-2). The experiment is classed as cell-based. The procedure: The procedure is performed on an isolated human sweat gland. Collapsed segments of secretory coil are held between two glass pipettes in the perfusion bath of an inverted microscope and bathed at 37° C. in a solution buffered to pH 7.4. Intracellular calcium may be measured by any convenient means; in our tests the fluorescent dye FURA-2 AM was used (full details are given in Examples 1 and 2). The calcium influx induced by the administration of methylcholine at 1 μmol.dm^−3 is compared before and after the introduction of the test material into the buffer solution. Test materials are classed as CCBAs if they are able to reduce the methylcholine-induced calcium influx into the cells, preferably by at least 20%, more preferably by at least 50%. The concentration of test material used should be between 1 and 100 μmol.dm^−3 for pure compounds, 25 μmol.dm^−3 being a typical concentration of use. When the test material used is not a pure compound, for example when it is a plant extract, allowance must be made for the non-active components in the extract when choosing the test dosage.
(§1) Collapsed segments of secretory coil were held between two glass pipettes in the perfusion bath of an inverted Olympus IMT-2 microscope and bathed in a solution at 37° C. containing (in mmol.dm^−3): sodium chloride, 130; HEPES (buffer; 4-[2-hydroxyethyl]-1-piperazineethanesulphonic acid), 20; potassium chloride, 5; calcium chloride, 1; magnesium chloride, 1; and glucose, 10. The pH of the solution was adjusted to 7.4 using 1 mol.dm^−3 sodium hydroxide solution.
The calcium influx was induced by the administration of methylcholine (a cholinergic agonist) at 1 μmol.dm^−3. This was first done for control solutions containing no CCBA and then for test solutions containing tetrandrine (various dosages).
Intracellular calcium concentration was measured using the fluorescent probe Fura-2, a dye that has high affinity for calcium. When illuminated with ultraviolet light at 350 and 380 nm, Fura-2 emits corresponding fluorescent signals. Importantly, when calcium binds to the dye, the magnitude of the emitted fluoresence signal alters. It is these changes that are used to calculate the intracellular calcium concentration (vide infra).
Segments of secretory coil were incubated for 40 minutes, at 37° C., with 5 μm.dm^−3 Fura-2 AM. This form of Fura-2 is lipid soluble and readily enters the cell where the AM group is cleaved off by esterases, leaving the fluorescent lipid-insoluble dye trapped within the cells. Excitation light at 350 and 380 nm was supplied from a computer controlled Photon Technology International (PTI) spectrofluorimeter. This light was passed through a 390 nm dichroic mirror, prior to passage through the microscope objective (×40) and onto the tissue sample. The fluorescence resulting from the tissue was passed through a 505 nm bandpass filter, before being detected by a photomultiplier tube. The output from the photomultiplier tube was digitised and analysed using Photon Technology International software. Background fluorescence (measured prior to introduction of the Fura-2 AM) was subtracted from the total signal for each wavelength and a value representing the intracellular calcium concentration was obtained by dividing the fluorescence value resulting from the 350 nm excitation light by that resulting from the 380 nm excitation light.

Experiment [4] concerns secretory coil cells of human apocrine glands. The experiment is described as follows: Inhibition of methylcholine-induced calcium influx into human apocrine secretory coil cells (Fura-2). The format is cell-based. On the procedure: as §1
Intracellular calcium concentration was measured using the fluorescent probe Fura-2, a dye that has high affinity for calcium. When illuminated with ultraviolet light at 350 and 380 nm, Fura-2 emits corresponding fluorescent signals. Importantly, when calcium binds to the dye, the magnitude of the emitted fluoresence signal alters. […]
Segments of secretory coil were incubated for 40 minutes, at 37° C., with 5 μm.dm^−3 Fura-2 AM. This form of Fura-2 is lipid soluble and readily enters the cell where the AM group is cleaved off by esterases, leaving the fluorescent lipid-insoluble dye trapped within the cells. […] The fluorescence resulting from the tissue was passed through a 505 nm bandpass filter, before being detected by a photomultiplier tube. The output from the photomultiplier tube was digitised and analysed using Photon Technology International software. […]

The test system of experiment [5] is isolated cannulated monkey palm eccrine sweat glands. As to conditions: in vitro; cited from earlier work.

As for `COc1ccc(CCN(C)CCCC(C#N)(c2ccc(OC)c(OC)c2)C(C)C)cc1OC` (stereo not shown) [Verapamil hydrochloride], the “% reduction in sweat secretion” value in experiment [1] (dosage 1000 μmol.dm^−3) worked out at 93%.

The MIC is the least concentration at which growth counts as inhibited. Regarding `CC(C)=CCCC(C)=CCCC(C)=CCO` [farnesol, 3,7,11-trimethyldodeca-2,6,10-trienol], the MIC result in experiment [2] (literature values) is “ca. 25 μg.ml^−1”.

Regarding `Oc1cc(Cl)ccc1Oc1ccc(Cl)cc1Cl` [triclosan, 2′,4,4′-trichloro, 2-hydroxy-diphenyl ether], the MIC in experiment [2] (literature values) was 0.01 to 10 µg/mL.

In the case of `COc1ccc2cc1Oc1ccc(cc1)C[C@H]1c3cc(c(OC)cc3CCN1C)Oc1c(OC)c(OC)cc3c1[C@H](C2)N(C)CC3` [Tetrandrine, tetrandrine], the Ca influx inhibition in experiment [3] (dosage 1 μmol.dm^−3, methylcholine 1 μmol.dm^−3) is 24%; in experiment [3] (dosage 10 μmol.dm^−3, methylcholine 1 μmol.dm^−3), 44%; in experiment [3] (dosage 25 μmol.dm^−3, methylcholine 1 μmol.dm^−3), 75%; in experiment [3] (dosage 50 μmol.dm^−3, methylcholine 1 μmol.dm^−3) it was 96%; in experiment [3] (dosage 100 μmol.dm^−3, methylcholine 1 μmol.dm^−3), 100%; in experiment [4] (dosage 10 μmol.dm^−3, methylcholine 50 μmol.dm^−3) it was 60%. Also, the Ca influx inhibition in experiment [4] (dosage 50 μmol.dm^−3, methylcholine 50 μmol.dm^−3) was 93%. The “% reduction in sweat secretion” value in experiment [1] (dosage 50 μmol.dm^−3) is on record as 93%.

In the case of methoxy-verapamil, in experiment [5], the “effect on sweat production” value is “reduce sweat production”.

For the compound `CCO` [ethanol], the MIC result in experiment [2] (stated by contrast, no source given) is listed as “greater than 1 mg.ml^−1”.
